Experimental data: patent US7033789B1, “DNA molecules encoding L-glutamate-gated chloride channels from Schistocerca americana” (Merck & Co., Inc., priority 1999, dated 2006)

What was measured:
[1] = tested on: SaGluCl1 (short form “SC”) glutamate-gated chloride channel; assay: Two microelectrode voltage clamp of Xenopus oocytes expressing SaGluCl1; format: cell-based, Schistocerca americana; conditions: for current elicited on application of the compound: Xenopus oocyte, SaGluCl1 short form SC, membrane potential held at 0 mV (FIG. 3); for activation of the channel (chloride current): short form of SaGluCl1 in Xenopus laevis oocytes
Description: The measurement is made with the two microelectrode voltage clamp technique and the membrane potential was held at 0 mV. Two current recordings are superimposed. The bars at top show the duration of application of glutamate and ivermectin phosphate.
Full length cDNA clones corresponding to the selected RT-PCR sequences were used as template for synthesis of in vitro transcribed RNA (Ambion Inc.). The full-length cDNA encoding SaGluCl1 in a Bluescript plasmid is linearized and capped cRNA transcripts are synthesized using appropriate oligonucleotide primers and the mMESSAGE mMACHINE in vitro RNA transcription kit from Ambion. Xenopus laevis oocytes were prepared and injected using standard methods as described (Arena et al., 1991, Mol. Pharmacol. 40: 368–374; Arena et al, 1992, Mol. Brain Res. 15: 339–348). Adult female Xenopus laevis were anesthetized with 0.17% tricaine methanesulfonate and the ovaries were surgically removed and placed in a dish consisting of (mM): NaCl 82.5, KCl 2, MgCl2 1, CaCl2 1.8, HEPES 5, adjusted to pH 7.5 with NaOH(OR-2). Ovarian lobes were broken open, rinsed several times, and gently shaken in OR-2 containing 0.2% collagenase (Sigma, Type 1A) for 2–5 hours. When approximately 50% of the follicular layers were removed, Stage V and VI oocytes were selected and placed in media consisting of (mM): NaCl 86, KCl 2, MgCl2 1, CaCl2 1.8, HEPES 5, Na pyruvate 2.5, theophylline 0.5, gentamicin 0.1 adjusted to pH 7.5 with NaOH (ND-96) for 24–48 hours before injection. For most experiments, oocytes were injected with 10 ng of cRNA in 50 nl of RNase free water. Control oocytes were injected with 50 nl of water. Oocytes were incubated for 1–5 days in ND-96 supplemented with […] gentamycin, 2.5 mM Na pyruvate and 0.5 mM theophylline before recording. Incubations and collagenase digestion were carried out at 18° C.
Voltage-clamp studies were conducted with the two microelectrode voltage clamp technique using a Dagan CA1 amplifier (Dagan Instruments, Minneapolis, Minn.). The current passing microelectrodes were filled with 0.7 M KCl plus 1.7 M K3-citrate and the voltage recording microelectrodes were filled with 1.0 M KCl. The extracellular solution for most experiments was saline consisting of (mM): NaCl 96, BaCl2 3.5, MgCl2 0.5, CaCl2 0.1, HEPES 5, adjusted to pH 7.5 with NaOH. The extracellular chloride concentration was reduced in some experiments by equimolar replacement of NaCl with the sodium salt of the indicated anion. Experiments were conducted at 21–24° C. Data were acquired using the program Pulse and most analysis was performed with the companion program Pulsefit (Instrutech Instruments, Great Neck, N.Y.) or with Igor Pro (Wavemetrics, Lake Oswego, Oreg.). Data were filtered (fc, −3 db) at 1 kHz, unless otherwise indicated. […] The measurement was made as described in this Example with the two microelectrode voltage clamp technique and the membrane potential was held at 0 mV. Two current recordings are superimposed. The bars at top show the duration of application of glutamate and ivermectin phosphate.

[2] = tested on: SaGluCl1 (short form “SC”) expressed in CHO cells; assay: Current measurement in CHO cells expressing SaGluCl1; format: cell-based, Schistocerca americana
Protocol: FIG. 4A and FIG. 4B show the SaGluCl1 (short form “SC”) expressed in CHO cells assembles into a homomultimer and is activated by ivermectin (FIG. 4A) and nodulasporic acid (FIG. 4B). 100 nM ivermectin and 1 μM nodulasporic acid were added at 20 seconds and current was measured.
PTet-Splice subclones of SaGluCl1 and SaGluCl2 as disclosed in Example section 1 were transfected into CHO Tet-Off cells (Clontech labs, Inc.) using the Lipofectamine Plus reagent (Life Technologies Inc.). Stable cell lines are selected by growth in the presence of G418. Single G418 resistant clones are isolated and shown to contain the intact SaGluCl gene. Clones containing the SaGluCl cDNAs may be analyzed for expression using immunological techniques, such as immuneprecipitation, Western blot, and immunofluorescence using antibodies specific to the SaGluCl proteins. Antibody may obtained from rabbits innoculated with peptides that are synthesized from the amino acid sequence predicted from the SaGluCl sequences. Expression is also analyzed using patch clamp electrophysiological techniques, an anion flux assay, and ^3H-ivermectin and ^3H-glutamate binding assays.
The expression of recombinant SaGluCl1 and/or SaGluCl2 is achieved by transfection of the full-length SaGluCl cDNA into a mammalian host cell described herein.

Molecule | current elicited on application of the compound [1] | activation of the channel (chloride current) [1] | activation of homomultimer channel, current measured ([2]; 100 nM added at 20 seconds (FIG. 4A)) | activation of homomultimer channel, current measured ([2]; 1 μM added at 20 seconds (FIG. 4B))
N[C@@H](CCC(=O)O)C(=O)O [glutamate, L-glutamate] | elicited a rapidly desensitizing current | robust L-glutamate-gated chloride current | – | –
CC[C@H](C)[C@H]1O[C@]2(CC[C@@H]1C)C[C@@H]1C[C@@H](C/C=C(\C)[C@@H](O[C@H]3C[C@H](OC)[C@@H](O[C@H]4C[C@H](OC)[C@@H](O)[C@H](C)O4)[C@H](C)O3)[C@@H](C)/C=C/C=C3\CO[C@@H]4[C@H](O)C(C)=C[C@@H](C(=O)O1)[C@]34O)O2 [ivermectin, 22,23-dihydro-avermectin B1a] | – | activated | activated | –
ivermectin phosphate | elicited a current of similar amplitude, but the channel stayed open much longer | – | – | –
nodulasporic acid | – | activated | – | activated
